From US11078496B2, “System for F-box hormone receptor regulated protein expression in mammalian cells” (ICAHN SCHOOL OF MEDICINE AT MOUNT SINAI, priority 2016, dated 2021)

Test system: dnMAML1-NLS-GFP-OsJAZ^33 (dnM1-GFP-J)
Assay: Coronatine-dependent degradation of dnM1-GFP-J in hESCs (fluorescence microscopy)
Format: cell-based, human
Details: hESCs harboring pRAIDRS NICD-A and pJAZ dnM1-GFP-J, 50 μM coronatine, 1 day
Method: FIGS. 14A-14C illustrate a dual switch for dissection of NOTCH1 function in hESCs. H9 hESCs were infected with pRAIDRS harboring an shRNA targeting the full-length NOTCH1 receptor and an NICD-AID^47 CDS (“NICD-A”). As a control, cells were infected with pRAIDRS NLS-GFP-AID^47 (“GFP-A”). Cells were maintained with 250 μM auxin to prevent NICD-A accumulation. Following selection and isolation of colonies with ESC morphology, cells were infected with pJAZ dnMAML1-NLS-GFP-OsJAZ^33 (“dnM1-GFP-J”) or pJAZ NLS-GFP-OsJAZ^33 (“GFP-J”) as control and post-selection colonies were expanded. FIG. 14A is a western blot analysis of pRAIDRS GFP-A and NICD-A hESCs maintained in the presence of 250 μM auxin (“IAA”), washed and incubated for 4 h in the presence (+) or absence (−) of auxin. […] Dashed lines mark colony borders. […] Dashed lines indicate instances where coronatine-mediated dnM1-GFP-J degradation restored NICD-A-dependent activity by at least twofold. […] See also FIGS. 13A-13E and 15.
In mice, NOTCH was also implicated in trophectoderm formation (Rayon et al., “Notch and Hippo Converge on Cdx2 to Specify the Trophectoderm Lineage in the Mouse Blastocyst,” Dev. Cell 30:410-422 (2014), which is hereby incorporated by reference in its entirety). […]

In the case of `CC[C@H]1C=C(C(=O)N[C@@]2(C(=O)O)C[C@@H]2CC)[C@H]2CCC(=O)[C@H]2C1` [coronatine, Coronatine], the “degradation of dnM1-GFP-J” value is reported as “effectively induced degradation”.
